# Source: patent EP3838286B1, “ANTIMICROBIAL PEPTIDE FROM POLISTES GALLICUS VENOM AND ITS ANALOGS” (Latoxan, priority 2019, dated 2021)
# Like-named read-outs stand apart in the source and are kept apart here. Square brackets hold non-standard residues; d marks the D form. Peptide text beside a SMILES is read from it.
# How the values were obtained:
# [1] = tested on: MDA-MB-231; assay: Antitumor / antiproliferative activity (resazurin); assay type: cell-based; settings: Homo sapiens, breast cancer cells, 5,000 cells/well, 48 h, read-out: IC50 antiproliferative effect MDA-MB-231
# Method: (§1) Human cancer cell lines (Mia PaCa-2 (CRL-1420), PC-3 (CRL-1435), MDA-MB-231 (HTB-26)) and normal lung fibrobasts (BEAS-2B (ATCC CRL-9609) and IMR-90 (ATCC CCL-186)) were obtained from American Type Culture Collection (ATCC). HUVEC cells were obtained from Sigma Aldrich and were grown in defined all-in-one ready to use endothelial cell growth medium (Sigma Aldrich). Other cells were cultured in Dulbecco's modified Eagle's medium (DMEM, Gibco Life Technologies) supplemented with 10% heat-inactivated fetal calf serum (FCS, Lonza) at 37 °C in an incubator containing 5% CO2. Cells were sub-cultured in new media every 3-4 days. Antiproliferative / antitumor effects of the peptides were measured as previously described (Borie et al., Eur J Med Chem. 2018;148:306-313). Briefly, cells were detached from growing flask using trypsin, cells were counted and seeded in 96 well-plates in the growth media at an initial cell density of 5000 cells/well. Cells were left for 4 h to attach to the wells. Cells were then treated with increasing concentrations of peptides diluted in culture media. After 48 h incubation at 37 °C in a 5% CO2 incubator, wells were emptied and cell number was evaluated using Resazurin based in vitro toxicity assay kit (from Sigma-Aldrich) following manufacturer's instructions. Briefly, Resazurin stock solution was diluted 1:10 in sterile PBS containing calcium and magnesium (PBS, pH 7.4) and empty wells were filled with 100 µL of the diluted solution. After 4 h incubation at 37 °C, fluorescence intensity was measured using microplate reader (Synergy Mx, Biotek) with an excitation wavelength of 530 nm and an emission wavelength of 590 nm. The fluorescence values were normalized by the controls (buffer treated cells) and expressed as per-cent viability. […]
# [2] = tested on: MiaPaCa-2; assay: Antitumor / antiproliferative activity (resazurin); assay type: cell-based; settings: Homo sapiens, MIA PaCa-2; pancreas cancer cells; 5,000 cells/well; 48 h; read-out: IC50 antiproliferative effect MiaPaCa-2
# Method: as §1
# [3] = tested on: PC-3; assay: Antitumor / antiproliferative activity (resazurin); assay type: cell-based; settings: Homo sapiens, prostate cancer cells, 5,000 cells/well, 48 h, read-out: IC50 antiproliferative effect PC-3
# Method: as §1
# [4] = tested on: P. aeruginosa; assay: Antimicrobial tests (MIC/MBC, two-fold serial dilution); assay type: cell-based, Pseudomonas aeruginosa (ATCC 9037); settings: Table 3, n=4
# [5] = tested on: S. aureus; assay: Antimicrobial tests (MIC, two-fold serial dilution); assay type: cell-based, Staphylococcus aureus (ATCC 6538P); settings: Staphylococcus aureus; Table 3; n=4
# [6] = tested on: E. coli; assay: as above; assay type: cell-based, E. coli (ATCC 8739); settings: Escherichia coli; Table 3; n=4
# [7] = tested on: B. subtilis; assay: as above; assay type: cell-based, Bacillus subtilis (ATCC 6633); settings: Bacillus subtilis; Table 3; n=4
# [8] = tested on: P. aeruginosa; assay: Selection for resistant bacteria (serial passaging); assay type: cell-based; settings: daily exposure at sub-MIC levels, 30 days; antibiotics: after 10 days
# Method: (§2) To evaluate if populations of AMP-resistant bacteria could be selected, cultures were continuously exposed to LTX-gallicune-1 (I1N1) and LTX-gallicune-2(R1W8) peptides for a duration of 30 days, as previously described (Oyama et al., 2017 Biofilms Microbiomes, Dec 1;3:33). Briefly, broth microdilution susceptibility testing was performed using a standard doubling-dilution series of gallicune peptides concentrations on day 1. Following incubation of the cultures for 24 h, and determination of the MIC, the well that contained the highest concentration of AMPs permitting growth was diluted 1: 1000 in MH and used to provide the inoculum for the next MIC assay; this process was repeated daily for 30 days.
# [9] = tested on: B. subtilis; assay: as above; assay type: cell-based; settings: daily exposure at sub-MIC levels, 30 days; antibiotic: after 10 days
# Method: as §2
# [10] = Cytotoxicity assay (resazurin); assay type: cell-based; settings: human
# Method: Normal human cells used were BEAS-2B (ATCC CRL-9609), IMR-90 (ATCC CCL-186) and Human Umbilical Vein Endothelial Cells (HUVEC) (from Sigma-Aldrich) corresponding respectively to human normal lung epithelial, normal lung fibroblast cells and human normal endothelial cells. All cells except HUVEC cells were cultured in Dulbecco's modified essential medium (DMEM) supplemented with 10% fetal calf serum (FCS), 1% L-glutamine and 1% antibiotics (all from Invitrogen). HUVEC cells were cultured in specific endothelial media (from Sigma Aldrich). Cells were seeded onto […] maintained in a 5% CO2 incubator at 37 °C. Cells grown on 25 cm^2 flasks were detached using trypsin-EDTA solution (from Thermofisher), counted using Mallassez counting chamber and seeded into 96-well cell culture plates (Greiner bio-one) at approximately 10,000 cells per well. The cells were left to grow for 48-72 h at 37 °C in a 5% CO2 incubator until they reached confluence. Plates were then aspirated and increasing concentrations of peptides diluted in culture media were added to the cells for 48 h at 37 °C in a 5% CO2 incubator. At the end of the incubation, wells were emptied and cell viability was evaluated using Resazurin based in vitro toxicity assay kit (from Sigma-Aldrich) following manufacturer's instructions. Briefly, Resazurin stock solution was diluted 1:10 in sterile PBS containing calcium and magnesium (PBS, pH 7.4) and empty wells were filled with 100 µL of the diluted solution. After 4 h incubation at 37 °C, fluorescence intensity was measured using microplate reader (Synergy Mx, Biotek) with an excitation wavelength of 530 nm and an emission wavelength of 590 nm. The fluorescence values were normalized by the controls (buffer treated cells) and expressed as percent viability. The IC50 values of peptides on cell viability (i.e. the concentration of derivative causing a reduction of 50% of cell viability) were determined using GraphPad® Prism 7 software. t-Test and two way ANOVA analyses were used to address the significant differences between mean values with significance set at p < 0.05.
# [11] = tested on: Pseudomonas aeruginosa; assay: Stability of the peptides to proteases and human serum (MIC of digested peptides); assay type: in vitro ADME; settings: against Pseudomonas aeruginosa
# Method: In order to evaluate the stability of the peptides to condition they will face in vivo, their resistance to proteases and human serum was evaluated (Oyama et al., 2017 Biofilms Microbiomes, Dec 1;3:33). Briefly, one volume of peptides (at 1 mM) was diluted in one volume of proteases (Pepsin, Trypsin, Chymotrypsin, Papain all from Sigma Aldrich and diluted at 2 mg/ml in HCl 10 mM pH2 for Pepsin, PBS pH 7 for Trypsin and Chymotrysin and PBS pH 6 for Papain) or human serum (Sigma Aldrich H4522). Peptides incubated in the same conditions in PBS were used as controls. After 4 h (for proteases) and 4 or 24 h (for human serum) of incubation at 37°C, PMSF was added to the reaction mixture at a final concentration of 100 µM to stop the digestion. MIC of the digested peptides were then determined as explained above.
# [12] = tested on: MDA-MB-231; assay: Antitumor / antiproliferative activity (resazurin); assay type: cell-based, human; settings: breast cancer cells; 5,000 cells/well; 48 h; read-out: IC50 antiproliferative effect MDA-MB-231
# Method: (§3) Human cancer cell lines (Mia PaCa-2 (CRL-1420), PC-3 (CRL-1435), MDA-MB-231 (HTB-26)) and normal lung fibrobasts (BEAS-2B (ATCC CRL-9609) and IMR-90 (ATCC CCL-186)) were obtained from American Type Culture Collection (ATCC). HUVEC cells were obtained from Sigma Aldrich and were grown in defined all-in-one ready to use endothelial cell growth medium (Sigma Aldrich). Other cells were cultured in Dulbecco's modified Eagle's medium (DMEM, Gibco Life Technologies) supplemented with 10% heat-inactivated fetal calf serum (FCS, Lonza) at 37 °C in an incubator containing 5% CO2. Cells were sub-cultured in new media every 3-4 days. Antiproliferative / antitumor effects of the peptides were measured as previously described (Borie et al., Eur J Med Chem. 2018;148:306-313). Briefly, cells were detached from growing flask using trypsin, cells were counted and seeded in 96 well-plates in the growth media at an initial cell density of 5000 cells/well. Cells were left for 4 h to attach to the wells. Cells were then treated with increasing concentrations of peptides diluted in culture media. After 48 h incubation at 37 °C in a 5% CO2 incubator, wells were emptied and cell number was evaluated using Resazurin based in vitro toxicity assay kit (from Sigma-Aldrich) following manufacturer's instructions. Briefly, Resazurin stock solution was diluted 1:10 in sterile PBS containing calcium and magnesium (PBS, pH 7.4) and empty wells were filled with 100 µL of the diluted solution. After 4 h incubation at 37 °C, fluorescence intensity was measured using microplate reader (Synergy Mx, Biotek) with an excitation wavelength of 530 nm and an emission wavelength of 590 nm. The fluorescence values were normalized by the controls (buffer treated cells) and expressed as per-cent viability. The IC50 values of peptides on cell division / proliferation (i.e. the concentration of derivative causing a reduction of 50% of cell division) were determined using GraphPad ® Prism 7 software. t-Test and two way ANOVA analyses were used to address the significant differences between mean values with significance set at p < 0.05.
# [13] = tested on: MiaPaCa-2; assay: Antitumor / antiproliferative activity (resazurin); assay type: cell-based, human; settings: pancreas cancer cells; 5,000 cells/well; 48 h; read-out: IC50 antiproliferative effect MiaPaCa-2
# Method: as §3
# [14] = tested on: PC-3; assay: Antitumor / antiproliferative activity (resazurin); assay type: cell-based, human; settings: prostate cancer cells; 5,000 cells/well; 48 h; read-out: IC50 antiproliferative effect PC-3
# Method: as §3
# [15] = tested on: P. aeruginosa
# [16] = tested on: A.baumani
# [17] = tested on: L. lactis
# [18] = tested on: B. subtilis (Nisin-resistant)
# [19] = tested on: A. gandavensis
# [20] = tested on: E. coli EHEC K88
# [21] = tested on: P. aeruginosa FQR
# [22] = tested on: P. aeruginosa 01
# [23] = tested on: S. flexneri
# [24] = tested on: C. farmeri
# [25] = tested on: C. rodentium
# [26] = tested on: S. enterica
# [27] = tested on: V. alginolyticus
# [28] = tested on: H. pylori
# [29] = tested on: M. smegmatis; settings: 72 h
compound,measurement,setting,value
"COc1cccc2c1C(=O)c1c(O)c3c(c(O)c1C2=O)C[C@@](O)(C(=O)CO)C[C@@H]3O[C@H]1C[C@H](N)[C@H](O)[C@H](C)O1 [Doxo, Doxorubicine]",IC50,[1],0.0798 µM
same,IC50,[2],0.19 µM
same,IC50,[3],0.315 µM
CC1(C)S[C@@H]2[C@H](NC(=O)[C@H](N)c3ccc(O)cc3)C(=O)N2[C@H]1C(=O)O [Amoxicilline],MIC,[4]; Pseudomonas aeruginosa,> 100 µM
same,MIC,[5],0.9 µM
same,MIC,[6],9 µM
same,MIC,[7],0.45 to 0.9 µM
CO/N=C1\CN(c2nc3c(cc2F)c(=O)c(C(=O)O)cn3C2CC2)CC1CN (stereo not drawn) [Gemifloxacin],change of MIC against P. aeruginosa on serial passaging (resistance acquisition),[8],increasing
C/C(=C\C(=O)OCCCCCCCCC(=O)O)C[C@@H]1OC[C@H](C[C@@H]2O[C@H]2[C@@H](C)[C@H](C)O)[C@@H](O)[C@H]1O [Mupirocin],change of MIC against B. subtilis on serial passaging (resistance acquisition),[9],increasing
CC[C@@H](C)[C@@H](N)C(=O)N[C@@H](CC(C)C)C(=O)N[C@@H](CCCCN)C(=O)N[C@@H](C)C(=O)N[C@H](C(=O)N[C@@H](CCCCN)C(=O)N[C@@H](CCCCN)C(=O)N[C@@H](CC(C)C)C(=O)N[C@@H](CC(C)C)C(=O)N[C@@H](CCCCN)C(=O)N[C@H](CC(N)=O)C(N)=O)[C@@H](C)CC [LTX-gallicune-1(i1D-n11D)] (H-[dI]LKAIKKLLK[dN]-NH2),CC50 at 48 h,"[10]; BEAS-2B normal lung epithelial cells, normal lung epithelium, read-out: Cytotoxicity IC50 (µM) BEAS",391 µM
same,CC50 at 48 h,"[10]; HUVEC (human umbilical vein endothelial cells), normal endothelium, read-out: Cytotoxicity IC50 (µM) HUVEC",436 µM
same,CC50 at 48 h,"[10]; IMR-90 normal lung fibroblast cells, read-out: Cytotoxicity IC50 (µM) IMR90",362 µM
same,MIC (µM) Serum4h,[11]; after 4 h at 37°C in human serum,>50 µM
same,MIC (µM) Chymotrypsin,"[11]; after 4 h at 37°C with chymotrypsin, pH 7",>50 µM
same,MIC (µM) Pepsin,"[11]; after 4 h at 37°C with pepsin, pH2",>50 µM
same,MIC (µM) Trypsin,"[11]; after 4 h at 37°C with trypsin, pH 7",>50 µM
same,MIC (µM) Serum24h,[11]; after 24 h at 37°C in human serum,25 µM
same,MIC (µM) Control,"[11]; peptide incubated in PBS, not treated with proteases",3.125 µM
same,IC50,[12],75.6 µM
same,IC50,[13],4.61 µM
same,IC50,[14],32.3 µM
same,MBC (µM) P. aeruginosa,[15],1.5 µM
same,MIC (µM) P. aeruginosa,[15],1.5 µM
same,MIC PA,[15],1.5 µM
same,MIC (µM) A.baumani,[16],12.5 µM
same,MBC (µM) L. lactis,[17],0.78 µM
same,MIC (µM) L. lactis,[17],1.5 µM
same,MBC (µM) B. subtilis (Nisin-resistant),[18],6.25 µM
same,MIC (µM) B. subtilis (Nisin-resistant),[18],6.25 µM
same,MBC (µM) A. gandavensis,[19],1.5 µM
same,MIC (µM) A. gandavensis,[19],1.5 µM
same,MBC (µM) E. coli EHEC K88,[20],50 µM
same,MIC (µM) E. coli EHEC K88,[20],25 µM
same,MBC (µM) P. aeruginosa FQR,[21],25 µM
same,MIC (µM) P. aeruginosa FQR,[21],6.25 to 12.5 µM
same,MBC (µM) P. aeruginosa 01,[22],12.5 µM
same,MIC (µM) P. aeruginosa 01,[22],6.25 µM
same,MBC (µM) S. flexneri,[23],12.5 µM
same,MIC (µM) S. flexneri,[23],12.5 µM
same,MBC (µM) C. farmeri,[24],12.5 µM
same,MIC (µM) C. farmeri,[24],6.25 µM
same,MBC (µM) C. rodentium,[25],25 µM
same,MIC (µM) C. rodentium,[25],25 µM
same,MBC (µM) S. enterica,[26],25 µM
same,MIC (µM) S. enterica,[26],25 µM
same,MBC (µM) V. alginolyticus,[27],0.78 µM
same,MIC (µM) V. alginolyticus,[27],0.78 µM
same,MBC (µM) H. pylori,[28],25 µM
same,MIC (µM) H. pylori,[28],25 µM
same,MIC (µM) M. smegmatis,[29],25 µM
Gentamycine,MIC,[4],0.3 µM
